Measurements published in patent US7446125B2, “Derivatives of nitroproline compounds, processes of manufacture and uses in the treatment of integrin mediated disorders” (Universidad del Pais Vasco, priority 2005, dated 2008).

Columns and labels:
[1] = target: T1, VLA-4 (Mus musculus, UniProt P09055+Q00651); assay: B16M (MB16) melanoma cell adhesion to primary cultured hepatic sinusoidal endothelial (HSE) cells; format: cell-based, murine; conditions: B16M cells preincubated with compound, 50 μg/1×10^6 MB16 cells; TNF-alpha-treated HSE or H2O2-treated B16M cells; FIG. 6
T1 construct: The tumor used is the B16F10 subline of MB16, the VLA-4 expression of which is constitutive; endogenous in cells; host or cells: B16F10 (MB16/B16M) murine melanoma cells; VCAM-1 on primary mouse HSE cells
T1 sequence (Q00651 41-1039): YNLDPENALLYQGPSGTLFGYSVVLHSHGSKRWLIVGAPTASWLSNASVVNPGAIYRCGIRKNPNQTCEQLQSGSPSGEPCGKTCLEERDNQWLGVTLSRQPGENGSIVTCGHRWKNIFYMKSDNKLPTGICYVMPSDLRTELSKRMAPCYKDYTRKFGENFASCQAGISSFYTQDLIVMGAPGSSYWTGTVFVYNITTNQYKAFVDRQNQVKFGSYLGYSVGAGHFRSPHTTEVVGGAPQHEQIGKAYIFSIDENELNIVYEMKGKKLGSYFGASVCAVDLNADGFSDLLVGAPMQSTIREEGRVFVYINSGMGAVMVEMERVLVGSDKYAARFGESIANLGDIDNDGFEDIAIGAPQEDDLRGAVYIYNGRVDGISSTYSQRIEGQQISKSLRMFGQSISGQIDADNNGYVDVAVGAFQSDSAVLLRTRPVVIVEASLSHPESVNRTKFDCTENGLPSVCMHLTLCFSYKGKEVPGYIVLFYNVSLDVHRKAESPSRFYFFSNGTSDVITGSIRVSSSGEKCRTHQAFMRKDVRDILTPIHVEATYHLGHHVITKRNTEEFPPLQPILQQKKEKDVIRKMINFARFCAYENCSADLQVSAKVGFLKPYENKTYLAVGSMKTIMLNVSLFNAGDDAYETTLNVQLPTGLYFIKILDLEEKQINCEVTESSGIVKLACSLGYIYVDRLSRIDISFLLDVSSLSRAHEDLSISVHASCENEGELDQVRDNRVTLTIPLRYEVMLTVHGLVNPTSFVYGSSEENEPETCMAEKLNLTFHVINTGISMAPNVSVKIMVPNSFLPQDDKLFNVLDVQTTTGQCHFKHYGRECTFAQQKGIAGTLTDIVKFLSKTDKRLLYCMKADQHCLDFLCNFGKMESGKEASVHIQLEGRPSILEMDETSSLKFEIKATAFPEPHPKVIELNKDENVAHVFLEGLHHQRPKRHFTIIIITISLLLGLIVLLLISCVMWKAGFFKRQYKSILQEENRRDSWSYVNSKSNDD
T1 sequence (P09055 21-798): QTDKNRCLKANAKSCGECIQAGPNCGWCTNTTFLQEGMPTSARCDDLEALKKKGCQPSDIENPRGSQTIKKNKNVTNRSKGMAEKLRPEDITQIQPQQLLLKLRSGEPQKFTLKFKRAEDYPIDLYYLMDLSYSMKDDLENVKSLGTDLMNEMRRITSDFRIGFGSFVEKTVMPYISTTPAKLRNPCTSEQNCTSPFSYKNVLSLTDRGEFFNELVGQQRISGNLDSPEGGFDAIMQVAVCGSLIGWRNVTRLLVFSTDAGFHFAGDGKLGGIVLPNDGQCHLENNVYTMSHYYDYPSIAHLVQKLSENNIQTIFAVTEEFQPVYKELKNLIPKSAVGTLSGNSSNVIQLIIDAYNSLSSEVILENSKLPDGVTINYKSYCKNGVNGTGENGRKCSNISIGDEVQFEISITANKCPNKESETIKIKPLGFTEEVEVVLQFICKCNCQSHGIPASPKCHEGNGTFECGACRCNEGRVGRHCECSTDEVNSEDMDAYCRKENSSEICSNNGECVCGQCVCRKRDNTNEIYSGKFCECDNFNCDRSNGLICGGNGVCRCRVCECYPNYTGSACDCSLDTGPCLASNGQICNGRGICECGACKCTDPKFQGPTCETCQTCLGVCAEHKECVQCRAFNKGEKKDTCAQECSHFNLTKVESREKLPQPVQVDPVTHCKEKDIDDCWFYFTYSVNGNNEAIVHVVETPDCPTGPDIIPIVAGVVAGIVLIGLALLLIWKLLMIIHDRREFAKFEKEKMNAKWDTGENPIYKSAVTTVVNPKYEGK
Experimental: The tumor used is the B16F10 subline of MB16, the VLA-4 expression of which is constitutive.
The MB16 tumor cells (subline B16F10) are cultured in incubator at 37° C., with 5% CO2 atmosphere, in DMEM medium (Dulbecco's modified Eagle's medium), adjusted to pH 7.4 and supplemented with penicillin (100 U/ml), streptomycin (100 μg/ml) and 5% fetal bovine serum. The cells are maintained and subcultured according to a previously-described method (Vidal-Vanaclocha et al. Cancer Research, 1994, 54, 2667).
The hepatic sinusoidal cells are isolated from C57BU6J mice (males, age 6-8 weeks) supplied by IFFA Credo (L'Arbreole, France). For their purification and identification, the previously-described protocol is employed (Vidal-Vanaclocha et al. Hepatology, 1993, 18, 328-339). The primary HSE cell cultures are obtained by seeding the cells on a Type I collagen substrate (Sigma Chemicals Co, St Louis, Mo.) in the presence of DMEM, supplementing with penicillin (100 U/ml), streptomycin (100 μg/ml) and 10% fetal bovine serum, at 37° C. in 5% CO2 atmosphere.
The endothelial cells are isolated 24 hours prior to the adhesion test and are seeded on 24-well plate, maintaining them a minimum of 4 hours in free serum medium before incubating them with DMEM in the presence or not of 10 ng/ml TNF-α for 6 hours. The B16 cells are marked with 40 μg/ml of the BCECF-AM fluorescent probe (carboxyfluorescein, 2′,7′-bis-(2-carboxy-etyl)-5-(6)carboxyfluorescein aminoxymethyl ester), supplied by Molecular Probes Inc. (Oregon, USA). Afterward, a washing with DMEM medium without serum is performed to remove the excess flurorchromium, and the compounds of general formula I are incubated at 37° C. for 15 minutes at the concentration of 50 μg/1×10^6 MB16 cells. This is followed by two washings, the number of visible cells being calculated by means of the trypan blue dye exclusion test, and they are resuspended to a concentration of 2×10^5 cells/ml. One (1) ml of the MB16 cell suspension is added to each well on the primary HSE cell culture plate, and the co-cultures are incubated at 37° C. for 8 minutes. The percentage of cellular adhesion is calculated by means of a previously-described fluorescence measurement system (Vidal-Vanaclocha et al. Cancer Research, 1994, 54, 2667).
Next, the potential VLA-4 antagonism of compounds 11 was tested through a previously established model on VLA-4NCAM-1-interaction-dependent B16M cell adhesion to primary cultured hepatic sinusoidal endothelial (HSE) cells in vitro.

[2] = target: T1, VLA-4; assay: B16M (MB16) cell adhesion to immobilized recombinant human VCAM-1; format: cell-based, murine; conditions: IL-1b (interleukin-1b)-treated melanoma cells; FIG. 3
[3] = tested on: B16M cells; assay: Cell viability, cytotoxicity, intracellular oxidative metabolism and proliferation rate of treated melanoma cells; format: cell-based, murine
Experimental: (§1) B16M cells were cultured for 24 hours in the presence 50 μg/ml of compound 11d, or […] anti-murine VLA-4 antibody. Cultured cells were fixed and processed for the immunohistochemical detection of Ki-67 antigen expression. Next, a computed-aid microscopic image analysis system was used to discriminate stained cells (brown nuclei) and calculate the average number of Ki-67 antigen-expressing cells per 1×10^4 cells. The results are the mean±SD of 6 independent fields, from 3 different experiments (n=18).

[4] = tested on: VEGF production by soluble VCAM-1-stimulated B16M cells; assay: VEGF production by soluble VCAM-1-treated B16M cells in vitro; format: cell-based, murine; conditions: soluble VCAM-1-stimulated cells; FIG. 4
[5] = Solubility in water; format: physicochemical; conditions: compared with 11f
[6] = tested on: B16M cells; assay: Hepatic metastasis of intrasplenically injected, compound-pretreated B16M cells; format: in vivo, C57BU6J mice; conditions: mice intrasplenically injected with pretreated B16M cells relative to untreated cells; P<0.01; FIG. 7
Experimental: A description is provided in following of the effect of the le compound on the metastatic capacity of MB16 in in-vivo tests. For this purpose, the MB16 cells treated with le are inoculated intrasplenically in C57BU6J mice (3×10^5 viable cells per animal, resuspended in endotoxin-free sterile saline solution), and the microvascular retention within the first 18 hours and their ability to develop metastasis on day 12 following the tumor injection is determined.
as §1

Q: Which melting point does the source give for `CC(C)[C@H](OCc1ccccc1)[C@H]1[C@H]([N+](=O)[O-])[C@H](C(C)(C)C)N[C@@H]1C(=O)NCC(=O)O` [Compound 11b, 2-[(2S,3R,4S,5S)-5-tert-Butyl-3-[(S)-1-(benzyloxy)-2-methylpropyl]-4-nitropyrrolidine-2-carboxamido]acetic acid] here?
A: 119 to 120 °C

Q: What about the “antiadhesive activity (B16M cell adhesion to HSE cells)” value (shortened to “antiadhesive activity”) [1] of the same compound?
A: did not show any significant antiadhesive activity

Q: With `CC[C@H](C)[C@H](OCc1ccccc1)[C@H]1[C@H]([N+](=O)[O-])[C@H](c2ccccc2)N[C@@H]1C(=O)NCC(=O)O` [Compound 11d, 2-[(2S,3R,4S,5S)-3-[(1S,2S)-1-(Benzyloxy)-2-methylbutyl]-4-nitro-5-phenyl-pyrrolidine-2-carboxamido]acetic acid] as the compound, how does the “adhesion of melanoma cells to immobilized VCAM-1” value [2] read?
A: completely abrogated

Q: And the “antiadhesive activity” value [1]?
A: comparable antiadhesive activity to monoclonal antibodies against murine VLA-4

Q: What about the “cell viability and cytotoxicity, intracellular oxidative metabolism, cell-proliferation rates” value [3] of the same compound?
A: excluded that antimetastatic effects of 11d compound may have been caused by indirect effects on cell functions

Q: What about the “VEGF production induced by soluble VCAM-1” value [4] of the same compound?
A: prevented

Q: And the solubility in water [5]?
A: higher solubility in water

Q: And the “decrease of metastasis density” value [6]?
A: 60%

Q: What about the “decrease of metastasis volume” value [6] of the same compound?
A: 95%

Q: For `CC(C)[C@H](OCc1c(F)cccc1F)[C@H]1[C@H]([N+](=O)[O-])[C@H](c2ccccc2)N[C@@H]1C(=O)NCC(=O)O` [Compound 11e, 2-[(2S,3R,4S,5S)-3-[(S)-1-(2,6-Difluorobenzyloxy)-2-methylpropyl]-4-nitro-5-phenyl-pyrrolidine-2-carboxamido]acetic acid], which “antiadhesive activity” value [1] is on record?
A: almost inactive

Q: Which “antiadhesive activity” value [1] does the source give for `CC[C@H](C)[C@H](OCc1ccccc1)[C@H]1[C@H]([N+](=O)[O-])[C@H](C2CCCCC2)N[C@@H]1C(=O)NCC(=O)O` [Compound 11f, 2-[(2S,3R,4S,5S)-3-[(1S,2S)-1-(benzyloxy)-2-methylbutyl]-5-cyclohexyl-4-nitropyrrol-idine-2-carboxamido]acetic acid] here?
A: best activity in vitro

Q: With `CC[C@H](C)[C@H](OCc1ccccc1)[C@H]1[C@H]([N+](=O)[O-])[C@H](C2CC2)N[C@@H]1C(=O)NCC(=O)O` [Compound 11h, 2-[(2S,3R,4S,5S)-3-[(1S,2S)-1-(benzyloxy)-2-methylbutyl]-5-cyclopropyl-4-nitropyrrol-idine-2-carboxamido]acetic acid] as the compound, how does the “antiadhesive activity” value [1] read?
A: did not show any significant antiadhesive activity

Q: Which “antiadhesive activity” value [1] does the source give for `CC[C@H](C)[C@H](OCc1ccccc1)[C@@H]1[C@H]([N+](=O)[O-])[C@H](c2ccccc2)N[C@]1(C)C(=O)NCC(=O)O` [Compound 11j, 2-[(2S,3R,4S,5S)-3-[(1S,2S)-1-(Benzyloxy)-2-methylbutyl]-2-methyl-4-nitro-5-phenyl-pyrrolidine-2-carboxamido]acetic acid] here?
A: did not result in a significant loss of activity
